From paper PMC6792352, “Limited Chemical Structural Diversity Found to Modulate Thyroid Hormone Receptor in the Tox21 Chemical Library” (Environmental Health Perspectives, 2019)
Counter-ions that a name gives are not always drawn.

Assay: in vitro
Details: rat, gh3-tre-luc cells

SMILES | CC50 at 24 h (AC50 (uM) modified / 1000) [µM] | further results
Cc1cc(C(=O)NNCc2ccccc2)no1 [Isocarboxazid] | > 20 | –
CCO[Si](C)(OCC)OCC [Triethoxymethylsilane] | > 90 | –
CC(=O)[C@H]1CC[C@H]2[C@@H]3CC[C@H]4C[C@](C)(O)CC[C@]4(C)[C@H]3CC[C@]12C [Ganaxolone] | – | CC50 at 24 h (AC50 (uM) modified / 1000, Tox21_110001=Tox21_112264, viability, 1 nM T3 present, 24 h): > 50 µM
NC(=O)Nc1ccc(Cl)cc1 [4-Chlorophenylurea] | > 90 | –
c1ccc(-c2cccc(-c3ccccc3)c2)cc1 [1,1':3',1''-Terphenyl] | > 90 | –
O=C(Oc1ccc(Br)cc1)N1CCN2CCC1CC2 [SSR180711] | 44 | –
CON(C)C(=O)Nc1ccc(Cl)c(Cl)c1 [Linuron] | > 90 | –
OC[C@H]1O[C@@H](n2cnc3c(O)ncnc32)[C@H](O)[C@@H]1O [Inosine] | > 50 | –
Cc1ccccc1NC(=N)Nc1ccccc1C [1,3-Bis(2-methylphenyl)guanidine] | > 90 | –
CCCCOCCOCCOCCOCCO [3,6,9,12-Tetraoxahexadecan-1-ol] | > 90 | –
CC(=O)/N=c1/sc(S(N)(=O)=O)nn1C [Methazolamide] | > 20 | –
CCCCOC(=O)CC [Butyl propionate] | > 90 | –
COc1ccccc1OC [1,2-Dimethoxybenzene] | – | CC50 at 24 h (AC50 (uM) modified / 1000, Tox21_110001=Tox21_302297, viability, 1 nM T3 present, 24 h): > 90 µM
CCN(CC)CCCC(C)Nc1cc(/C=C/c2ccccc2Cl)nc2cc(Cl)ccc12 (centres unmarked) [Aminoquinol] | 20.1 | –
NS(=O)(=O)Cc1noc2ccccc12 [Zonisamide] | > 50 | –
C[Si](O[Si](C)(C)C)O[Si](C)(C)C | > 90 | –
CCCN(CCC)c1c([N+](=O)[O-])cc(S(C)(=O)=O)cc1[N+](=O)[O-] [Nitralin] | – | CC50 at 24 h (AC50 (uM) modified / 1000, Tox21_110001=Tox21_301901, viability, 1 nM T3 present, 24 h): > 90 µM
CCCCCCCN(CC)CCCC(O)c1ccc(NS(C)(=O)=O)cc1 (centres unmarked) [Ibutilide fumarate] | 21.5 | –
Cc1ccccc1C(=O)O [2-Methylbenzoic acid] | > 90 | –
CCCCC(=O)N(Cc1ccc(-c2ccccc2-c2nnn[nH]2)cc1)[C@H](C(=O)O)C(C)C [Valsartan] | > 50 | –

SMILES | CC50 at 24 h (AC50 (uM) modified / 1000) [µM] | further results
CN(N=O)c1ccccc1 [Nitrosomethylaniline] | > 90 | –
ClCCOCCCl [Bis(2-chloroethyl) ether] | > 90 | –
COc1nn(CSP(=S)(OC)OC)c(=O)s1 [Methidathion] | > 90 | –
CCC(C(=O)OCCOCCN(CC)CC)c1ccccc1 (centres unmarked) [Butamirate citrate] | > 50 | –
C[C@@H]1C(=O)C[C@H]2[C@]3(C)CC[C@@]2([C@H](C)C(=O)O)C(=O)[C@H]13 [Santonic acid] | > 50 | –
O=C(O)[C@H]1/C(=C/CO)O[C@@H]2CC(=O)N21 [Clavulanate lithium] | > 50 | –
CCCCCCCCCCCCCC(=O)OCC(O)CO (centres unmarked) [Tetradecanoic acid, 2,3-dihydroxypropyl ester] | > 90 | –
FC(F)(F)C(F)(F)C(F)(F)C(F)(F)C(F)(F)C(F)(F)C(F)(F)C(F)(F)Br [1-Bromoheptadecafluorooctane] | > 50 | –
CN1CCC(=C2c3ccccc3CC(=O)c3sccc32)CC1 [Ketotifen] | 16 | –
N#CCCC(Br)(C#N)CBr (centres unmarked) [1,2-Dibromo-2,4-dicyanobutane] | 16.2 | –
CCCCCCCCCCN [1-Decanamine] | > 90 | –
CC(C)CCON=O [3-Methylbutyl nitrite] | – | CC50 at 24 h (AC50 (uM) modified / 1000, Tox21_110001=Tox21_111074, viability, 1 nM T3 present, 24 h): > 50 µM; CC50 at 24 h (AC50 (uM) modified / 1000, Tox21_110001=Tox21_200983, viability, 1 nM T3 present, 24 h): > 90 µM
CCC(C)c1cc([N+](=O)[O-])cc([N+](=O)[O-])c1OC(=O)C=C(C)C (centres unmarked) [Binapacryl] | 36.3 | –
Cc1cc(C(C)(C)c2ccc(O)c(C)c2)ccc1O [3,3'-Dimethylbisphenol A] | > 90 | –
CC1(C)[C@H](C=C(Cl)Cl)[C@H]1C(=O)OCc1c(F)c(F)cc(F)c1F [Transfluthrin] | > 50 | –
O=C(CCS)OCC(COC(=O)CCS)(COC(=O)CCS)COC(=O)CCS [3-[(3-Sulfanylpropanoyl)oxy]-2,2-bis{[(3-sulfanylpropanoyl)oxy]methyl}propyl 3-sulfanylpropanoate] | > 90 | –
CO/N=C(\C(=O)N[C@@H]1C(=O)N2C(C(=O)OCOC(=O)C(C)(C)C)=C(C)CS[C@H]12)c1csc(N)n1 [Cefetamet pivoxil HCl] | > 50 | –
O=P(Oc1ccccc1)(Oc1ccccc1)Oc1ccccc1 [Triphenyl phosphate] | – | CC50 at 24 h (AC50 (uM) modified / 1000, Tox21_110001=Tox21_201511, viability, 1 nM T3 present, 24 h): > 90 µM
C[N+](C)(C)CC[N+]1(C)Cc2c(Cl)c(Cl)c(Cl)c(Cl)c2C1 [Chlorisondamine chloride] | > 50 | –
CCOP(=S)(Oc1cnc(C(C)(C)C)nc1)OC(C)C (centres unmarked) [Tebupirimfos] | – | CC50 at 24 h (AC50 (uM) modified / 1000, Tox21_110001=Tox21_300965, viability, 1 nM T3 present, 24 h): 52.3 µM
